{"source": "paper PMC3577712", "about": "(PLoS ONE, 2013)", "key": {"[1]": {"tested_on": "Influenza A/TW/70058/09 (H1N1)", "assay": "microbe, parasite or virus in culture", "format": "cell-based", "conditions": "H1N1, read-out: EC50, viral plaque reduction assay"}, "[2]": {"tested_on": "Influenza A/TW/70066/09 (H1N1)", "assay": "microbe, parasite or virus in culture", "format": "cell-based", "conditions": "H1N1, read-out: EC50, viral plaque reduction assay"}}, "data": [{"smiles": "Nc1c(S(=O)(=O)O)cc(Nc2cccc(S(=O)(=O)CCOS(=O)(=O)O)c2)c2c1C(=O)c1ccccc1C2=O", "note": "[RB19, Remazol Brilliant Blue R]", "values": [{"measurement": "EC50", "setting": "[1]", "result": 9.8, "unit": "µM"}, {"measurement": "EC50", "setting": "[2]", "result": 11.9, "unit": "µM"}]}]}
